What is called Ki is a dissociation constant, usually derived from enzyme kinetics or from competition with a known ligand. Read a high Ki as weaker binding.

For assay [1], the target named is 5-hydroxytryptamine receptor 2B (Homo sapiens, UniProt P41595). Put plainly: Binding affinity to 5HT2b (unknown origin).
For a further assay, the target named is Vasopressin V1a receptor (Homo sapiens, UniProt P37288). Kind of assay: Binding affinity to vasopressin 1A receptor (unknown origin).

Each structure is given as a SMILES string.

Chain of 5-hydroxytryptamine receptor 2B (P41595 whole entry): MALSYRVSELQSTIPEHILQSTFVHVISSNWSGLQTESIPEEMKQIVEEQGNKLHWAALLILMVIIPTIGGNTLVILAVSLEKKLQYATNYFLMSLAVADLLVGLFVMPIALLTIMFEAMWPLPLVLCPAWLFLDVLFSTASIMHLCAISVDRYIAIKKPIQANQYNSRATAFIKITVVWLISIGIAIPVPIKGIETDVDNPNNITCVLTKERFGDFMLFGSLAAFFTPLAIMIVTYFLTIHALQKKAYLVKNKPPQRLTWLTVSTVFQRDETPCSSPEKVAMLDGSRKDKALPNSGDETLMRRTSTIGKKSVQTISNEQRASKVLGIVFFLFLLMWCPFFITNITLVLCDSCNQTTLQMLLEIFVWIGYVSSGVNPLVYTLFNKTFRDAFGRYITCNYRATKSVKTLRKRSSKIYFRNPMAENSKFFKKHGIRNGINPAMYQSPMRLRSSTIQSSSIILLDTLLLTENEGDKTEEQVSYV
Chain of Vasopressin V1a receptor (P37288 whole entry): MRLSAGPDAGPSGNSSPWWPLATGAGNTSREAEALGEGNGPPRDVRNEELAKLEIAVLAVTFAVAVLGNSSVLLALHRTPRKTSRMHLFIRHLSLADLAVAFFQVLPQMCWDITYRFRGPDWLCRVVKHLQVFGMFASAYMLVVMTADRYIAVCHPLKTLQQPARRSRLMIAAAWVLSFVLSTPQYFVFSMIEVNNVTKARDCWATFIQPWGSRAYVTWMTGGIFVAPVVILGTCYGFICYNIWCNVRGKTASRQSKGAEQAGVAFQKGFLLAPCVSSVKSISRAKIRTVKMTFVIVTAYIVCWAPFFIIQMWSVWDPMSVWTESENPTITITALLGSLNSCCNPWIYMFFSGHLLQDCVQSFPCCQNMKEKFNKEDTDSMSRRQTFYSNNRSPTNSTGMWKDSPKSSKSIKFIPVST

The compound `CC(C)[C@@H]1NC(=O)[C@H](Cc2ccoc2)N(C)C(=O)[C@H](Cc2ccoc2)NC(=O)[C@H](Cc2ccoc2)N(C)C1=O` had an inhibition constant Ki in assay [1] of 0.77 µM.
`CC(C)C[C@@H]1NC(=O)[C@H](Cc2ccoc2)N(C)C(=O)[C@H](C(C)C)NC(=O)[C@H](Cc2ccoc2)N(C)C1=O`: the Ki on Vasopressin V1a receptor was found to be 7.04 µM.

The record behind these values is ChEMBL document CHEMBL4373636, “Synthesis of endolides A and B: naturally occurring N-methylated cyclic tetrapeptides” (Medchemcomm, 2019).
